According to patent US5328913A, “Minoxidil analogs as inhibitors of cell proliferation and lysyl hydroxylase” (priority 1992, dated 1994):

Tests used:
[1] = system: Collagen Synthesis in Human Skin Fibroblasts; test: Collagen synthesis in human skin fibroblasts; assay type: cell-based; settings: 1 mM, 72 hr
Protocol: (§1) Culture of human skin fibroblasts derived from an apparently normal adult were grown to confluent densities in Dulbecco's modified Eagle's medium supplemented with 10% (v/v) fetal calf serum. Thereafter, the medium was replaced with medium supplemented with 0.5% dialyzed fetal calf serum. The cultures were treated for 72 hr with 1 mM minoxidil, 3'- hydroxyminoxidil,or 4'-hydroxyminoxidil (Upjohn) dissolved in aqueous medium. In some experiments, minoxodil was dissolved in 95% (v/v) ethanol; […]. Cultures treated with ethanol only served as the control.
During the last 6 hr of treatment, cultures were labeled with 20 μCi of L-[2,3-^3 H]proline in 1 ml of medium supplemented with 100 μM ascorbic acid. The amount of proline radioactivity incorporated into collagen in the medium and cells combined was measured after digestion with a bacterial collagenase, essentially as described previously (Freiberger et al, J. Invest. Dermatol. 75:425 (1980)).

lysyl hydroxylase [2] = test: Lysyl hydroxylase activity in extracts of treated human skin fibroblasts (Example 1, tritium-release assay); assay type: cell-based; settings: 0.1 mM; dissolved in HCl; final concentration 0.0012 N; 72 h (Table II footnote a)
[3] = system: Lysyl Hydroxylations in Human Skin Fibroblasts; test: Hydroxylation of lysine residues in type I procollagen (Hyl/Lys); assay type: cell-based; settings: for Hyl/Lys: 72 hr
Protocol: as §1
During the last 6 hr of treatment, cultures were labeled with 50 μCi of L-[2,3-^3 H]proline (35 Ci/mmol) and 50 μCi of L[U-^14 C]lysine ([…]) in 4 ml of lysine-free medium supplemented with 100 μM ascorbic acid. At the end of the incubation period, the medium was removed and mixed with 1 mM each of EDTA, N-ethylmaleimide, and phenylmethylsulfonylfluoride, and the collagenous proteins were precipitated with 30% (NH4)2 SO4. The cell layer was scraped and extracted with 0.5 M acetic acid containing the protease inhibitors as above. The cell extract was neutralized, and the collagenous proteins were precipitated as above. The (NH4)2 SO4 precipitate from the medium and cell layer was separately dissolved in 0.1% SDS/10 mM Tris-HCl (pH 6.8), reduced with dithiothreitol, and analyzed by electrophoresis on 4% SDS-polyacrylamide gels. The bands corresponding to the proαl(I) and proα2(I) chains from the two fractions were pooled and hydrolyzed with 6 M HCl for 24 hr at 110° C. Proline, hydroxyproline, lysine, and hydroxylysine in the hydrolysate were separated by HPLC (Takimitsa et al, J. Dermatol. 16:37 (1989)), and their radioactivity was determined in a Beckman liquid scintillation counter. To isolate type I procollagen the precipitate from the medium and cell layer was separately dissolved in 25 mM Tris-HCl, pH 7.5, containing 2 M urea and 1 mM each of EDTA, N-ethylmaleimide, and phenylmethylsulfonylfluoride, then chromatographed on a DEAE-cellulose column (Freiberger et al, J. Invest. Dermatol. 75:425 (1980)). The procollagen isolated from the two fractions was pooled, hydrolyzed, and analyzed as above.

lysyl hydroxylase [4] = test: Lysyl hydroxylase activity in extracts of treated human skin fibroblasts (Example 2, pyridine, triazine and N-alkyl analogs); assay type: cell-based
Protocol: Cells were treated for 72 hr with minoxidil or its triazine analog at the indicated concentrations. The enzyme activities in extracts of treated cells were measured by tritium release assays (Murad and Pinnell, J. Biol. Chem. 262:11,973 (1987)) and are expressed as a percentage of zero-concentration values. PH, prolyl hydroxylase; LH, lysyl hydroxylase.
Cells were treated for 72 hr with various concentrations of minoxidil or its N-alkyl analogs as indicated. The enzyme activity in extracts of treated cells was measured by tritium release assays (Murad and Pinnell, J. Biol. Chem. 262:11,973 (1987)) and is expressed as a percentage of zero-concentration value. The minoxidil curve is reproduced from FIG. 4.
Cultures of human skin fibroblast (1.5×10^6 cells) were seeded onto 100-mm plates and incubated at 37° in Dulbecco's modified Eagle's medium supplemented with 20% calf serum. After 24 hr, the medium was replaced with medium supplemented with 0.5% heat-inactivated dialyzed calf serum. The incubation was continued for an additional 72 hr in the presence of 0.1-2 μM minoxidil analogs dissolved in 0.12N HCl; the final concentration of HCl was 0.0012N or 0.0024N. Cells treated with HCl only served as control. During the last 3 hr of incubation, cells received […] ascorbic acid to ensure complete hydroxylation of the polypeptide precursors of procollagen (Murad et al, J. Invest. Dermatol. 75:404 (1980)). At the end of the incubation period, cells were harvested by trypsinization and disrupted by sonication in a buffered medium (Murad et al, J. Biol. Chem. 262:11,973 (1987)).
Lysyl hydroxylase activity in extracts of treated cells was measured with an underhydroxylated procollagen substrate (Murad et al, J. Biol. Chem. 262:11,973 (1987)), which was prepared by labeling cultures of human skin fibroblasts with L-[4,5-^3 H]lysine in the presence of an iron chelator α,α'-dipyridyl (Murad and Pinnell, Conn. Tiss. Res. 13:181 (1985)). The amount of tritium released was quantitated as ^3 HO after vacuum distillation . Prolyl hydroxylase activity was similarly measured with an underhydroxylated procollagen substrate containing L-[4-^3 H]proline (Murad and Pinnell, J. Biol. Chem. 262:11973 (1987); Murad and Pinnell, Conn. Tiss. Res. 13:181 (1985)). The enzyme activities are based on a unit of soluble cell protein. The protein content of cell extracts was determined by a dye-binding techniques using Bio-Rad reagents (Bradford, Anal. Biochem. 72:248 (1976)).
Cells were treated for 72 hr with 1 mM minoxidil or its
structural analogs as indicated. The enzyme activity in extracts
of treated cells was measured by a tritium-release assay and is
expressed as a percentage of HCl-treated control.

[5] = in vivo; cited from earlier work
[6] = system: non-proliferating fibroblasts; test: Cytotoxicity to non-proliferating fibroblasts (cell number per dish); assay type: cell-based; settings: 5 mM, 72 hr
Excerpt: Certain aspects of the present invention are described in greater detail in the non-limiting Examples that follow. (See also Murad et al, Arch. Biochem. Biophys. 292:234 (1992)).

lysyl hydroxylase [7] = settings: Murad and Pinnell 1987; cited from earlier work

Compound: Nc1cc(N2CCCCC2)nc(N)[n+]1[O-] [Minoxidil]
- % Collagen Synthesized ([1]; mean ± SD of duplicate analysis of two cultures (Table VII)): 6.6 ± 0.7%
- inhibition at 1000 µM ([1]; Homo sapiens, Skin fibroblast, compared with control, read-out: reduction of synthesis of collagen relative to that of total protein): 25%
- Lysyl hydroxylase activity (%) (lysyl hydroxylase [2]): 45%
- Hyl/Lys ([3]; 1 mM, gel electrophoresis (Table V)): 0.07 ± 0.02
- Hyl/Lys ([3]; 1 mM, type I procollagen chains isolated by gel electrophoresis, mean ± range of two experiments (description table)): 0.07 ± 0.02
- activity at 1000 µM ([3]; Homo sapiens, Skin fibroblast, 1 mM, 72 hr (Table V), read-out: ratio of hydroxylysine to lysine, percentage of control value): 32%
- ratio of hydroxylysine to lysine, % of control ([3]; procollagen isolated by column chromatography, 4320 min): 50%
- ratio of hydroxylysine to lysine, % of control value ([3]; procollagen isolated by gel chromatography (so in the source), 4320 min): 27%
- decrease of the activity of lysyl hydroxylase (lysyl hydroxylase [4]; 1 mM, 72 hr): 73%
- Lysyl hydroxylase activity (%) (lysyl hydroxylase [4]; 1 mM, 72 hr, % of HCl-treated control (Table III)): 27%
- IC50 (lysyl hydroxylase [4]; 72 hr (FIG. 4, FIG. 5), read-out: concentration giving 50% inhibition (lysyl hydroxylase)): 200 µM
- antihypertensive / hypotensive activity (in words) [5]: hypotensive activity
- 10^-6 × No. of Cells/Dish [6]: 0.49 10^-6 × No. of Cells/Dish
- effect on lysyl hydroxylase in cultured fibroblasts (in words) (lysyl hydroxylase [7]): selectively decreased the activity of lysyl hydroxylase
